Results: US20240270730A1, “DRG-MDM2-2 FOR USE AS A NOVEL MOUSE DOUBLE MINUTE 2 (MDM2) INHIBITOR” (BAHCESEHIR UNIVERSITESI, priority 2020, published 2024)
pIC50: −log10 of the molar value.

Columns and labels:
[1] = tested on: MDA-MB231 cell lines; assay: MTT cell viability assay (IC50); format: cell-based; conditions: Homo sapiens, MDA-MB-231; MDA-MB231 cells; single dose of treatment; concentrations 10-9 to 104 M; 570 nm absorbance; FIG. 1; read-out: IC50 (half-maximal inhibitory concentration), MTT cell viability
Description: HCT 116 colon cancer and MDA-MB231 breast cancer cell lines are used in cell culture experiments.
Cells were treated with high-glucose DMEM medium (Biosera) supplemented with 10% FBS (Gibco) and 1× penicillin/streptomycin (Multicell). The assay was designed to contain 10,000 cells for each well of 24-well cell culture plates before being treated with inhibitors.
Compound of formula I was dissolved with DMSO as 20 mM stock. 24 hours later, the solution was diluted in DMEM with 10% FBS and final concentration of vehicle DMSO was 0.5% at maximum. Therefore, the vehicle group included 0.5% DMSO concentration in experiments. Intensive cultivation of cells causes a decrease in proliferation capacity.
The MTT cell viability assay was used to detect values of half-maximal inhibitory concentration (IC50). Different concentrations of compound of formula I ranging between 10-9 to 104 M were tested on MDA-MB231 cell lines with single dose of treatment. 570 nm absorbance values were recorded and IC50 values were calculated by dose response—inhibition curves and nonlinear regression analysis on Graphpad Prism 8 software.

[2] = target: MDM2 protein (Homo sapiens, UniProt Q00987); conditions: compared with a natural p53 peptide; cited from earlier work
Sequence of MDM2 protein (Q00987 whole entry, species assumed): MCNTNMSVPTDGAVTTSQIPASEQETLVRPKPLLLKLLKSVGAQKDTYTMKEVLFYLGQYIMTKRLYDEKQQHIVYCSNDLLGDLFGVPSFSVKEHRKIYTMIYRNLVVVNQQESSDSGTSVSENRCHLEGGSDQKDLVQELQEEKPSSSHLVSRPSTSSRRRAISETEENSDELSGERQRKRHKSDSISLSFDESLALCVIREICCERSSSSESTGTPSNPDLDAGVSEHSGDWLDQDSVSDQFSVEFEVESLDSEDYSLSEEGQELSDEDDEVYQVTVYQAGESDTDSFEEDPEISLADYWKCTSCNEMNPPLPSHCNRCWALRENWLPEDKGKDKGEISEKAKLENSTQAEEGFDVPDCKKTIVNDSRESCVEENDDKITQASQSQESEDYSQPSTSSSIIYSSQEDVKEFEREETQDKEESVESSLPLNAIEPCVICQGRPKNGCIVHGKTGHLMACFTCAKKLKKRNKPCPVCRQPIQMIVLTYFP

Row | pIC50 [1] | Compound | binding affinity to MDM2 protein relative to natural p53 peptide [2] [fold]
1 | 6.05 | O=C(NCc1nc(-c2ccccc2)no1)NC(Cc1c[nH]c2ccccc12)C(=O)O (centres unmarked) [compound of formula I] | –
2 | – | MI-319 | 500
